Assay results reported in the supplement of paper PMC11451515.

Tests used:
Test in all cases: AUC of viability dose-response curve (% viability x log10 dose units); higher = less sensitive
Details in all cases: 48 h
NOMO1 = test system: NOMO1
Method in brief: (§1)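 Area under the curve was integrated by trapezoidal rule from a log-logistic fit of normalised viability, with curves exceeding full viability scaled and quality-control failures removed. The fit had four parameters over log10 doses. Viability came from CellTiter-Glo One luminescence, normalised per plate to DMSO and cell-free wells, after leukemia cells adapted to each medium (500 or 1000 cells/well, 1536-well plates) were exposed to library compounds in DMSO for 48 h at 37°C. The 11 threefold doses ran from 47 μM to 0.79 nM.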

P12-Ichikawa = test system: P12-Ichikawa
Method in brief: as §1

SEM cells = test system: SEM cells
Method in brief: as §1

[1] = RPMI 5 mM glucose + 10% dialyzed FBS

Structure (SMILES)	AUC of viability dose-response curve (NOMO1; HPLM + 10% dialyzed FBS)	AUC of viability dose-response curve (NOMO1; RPMI 5 mM glucose + 10% FBS)	AUC of viability dose-response curve (NOMO1; [1])	AUC of viability dose-response curve (P12-Ichikawa; HPLM + 10% dialyzed FBS)	AUC of viability dose-response curve (P12-Ichikawa; RPMI 5 mM glucose + 10% FBS)	AUC of viability dose-response curve (P12-Ichikawa; [1])	AUC of viability dose-response curve (SEM cells; HPLM + 10% dialyzed FBS)	AUC of viability dose-response curve (SEM cells; RPMI 5 mM glucose + 10% FBS)	AUC of viability dose-response curve (SEM cells; [1])
CC(C)(N)C(=O)N[C@H](COCc1ccccc1)C(=O)N1CCC2(CC1)CN([S+](C)(=O)[O-])c1ccccc12	402	460	446	445	440	438	448	437	419
CC(=O)SC[C@@H](C)C(=O)N1CCC[C@H]1C(=O)N[C@@H](Cc1ccccc1)C(=O)O	448	450	466	466	466	462	454	454	472
C[C@@H]1CC[C@@]2(CC[C@]3(C)\C(=C/C[C@@H]4[C@@]5(C)CC[C@H](O)C(C)(C)[C@@H]5CC[C@@]34C)[C@@H]2[C@H]1C)C(O)=O	477	461	468	462	469	458	465	467	456
NC1=NC(=O)N2CC12 (stereo not given)	367	350	352	400	369	349	312	314	281
CC/C=C\C[C@H]1C(=O)CC[C@@H]1CC(=O)OC	470	440	449	460	451	470	469	451	461
COCCn1c2c([n+](Cc3cnccn3)c1C)C(=O)c1ccccc1C2=O	194	232	223	251	247	244	161	209	189
CN1C(=O)/C(=C(NC2=CC=C(I)C=C2F)\C3=C1\N=C/N(C[C@@H](O)CO)C3=O)F	229	231	216	381	342	369	339	330	295
NC(=O)c1cnccn1	464	471	457	463	465	461	462	461	465
COc1cc(NCc2ccc3nc(N)nc(N)c3c2C)cc(OC)c1OC	347	397	380	346	383	350	345	370	336
C[C@@H]1[C@H]\2[C@H](O)[C@H]3[C@H](N(C)C)\C(=C(C(N)=O)/C(=O)[C@@]3(O)\C(=C2C(=O)C4=C(O)C=CC=C14)O)O	470	465	472	473	462	462	468	473	440
CC(=O)N(C)C1(c2ccccc2)CCN(CCC[C@]2(c3ccc(Cl)c(Cl)c3)CCCN(C(=O)c3ccccc3)C2)CC1	294	344	343	346	387	366	305	303	326
CN(C)c1nc(Cc2ccc(NC(=O)c3ccc(C(F)(F)F)cc3)cc2)nc(N(C)C)c1CC(=O)O	452	432	451	471	465	461	473	445	470
CC(C)(N)c1ccc(-c2nc3ccccc3nc2-c2ccccc2)cc1	177	220	241	168	224	219	196	145	181
Nc1n[nH]c2nnc(-c3c(-c4ccccc4)nn4ccccc34)cc12	378	354	379	404	403	429	446	449	455
CC(C)C1CCC(C(=O)N[C@H](Cc2ccccc2)C(=O)O)CC1 (stereo not given in full)	409	418	446	452	435	419	394	401	422
Nc1ccc(C(=O)c2cc3c(ccc4ccccc43)[nH]2)cc1	412	425	417	348	359	359	374	373	361
O=C(c1cncc(Br)c1)N1CCC(N2CCCC2)CC1	438	450	450	463	463	459	469	464	463
CC1(C)SCCN([S+](=O)([O-])c2ccc(OCC#CCO)cc2)[C@H]1C(=O)NO	462	437	450	456	454	438	449	413	439
O=C(O)c1cc(O)c2c(c1)C(=O)c1cccc(O)c1C2=O	464	445	466	455	464	443	451	460	464
CC(C(C)N1CC(=O)NC(=O)C1)N1CC(=O)NC(=O)C1 (stereo not given)	459	468	471	454	425	447	422	351	401
